Test results taken from the NIST ThermoML archive (doi:10.1021/acs.jced.8b00403).
Numbers after ± are expanded uncertainties.

Experiment: refractive index (Na D-line) (dimensionless); wn = mass fraction of the nth substance listed
Conditions: 101.33 kPa, Liquid, Standard Abbe refractometry

CC(O)CO (configuration not stated) [1,2-propanediol] + O
refractive index
Conditions | 278.15 K | 283.15 K | 288.15 K | 293.15 K | 298.15 K | 303.15 K | 308.15 K | 313.15 K | 318.15 K
w1 = 0.0988 | 1.3458 ± 0.001 | 1.3454 ± 0.001 | 1.3449 ± 0.001 | 1.3444 ± 0.001 | 1.3432 ± 0.001 | 1.3432 ± 0.001 | 1.3424 ± 0.001 | 1.3416 ± 0.001 | 1.3408 ± 0.001
w1 = 0.198 | 1.3578 ± 0.001 | 1.3571 ± 0.001 | 1.3564 ± 0.001 | 1.3557 ± 0.001 | 1.355 ± 0.001 | 1.3542 ± 0.001 | 1.3534 ± 0.001 | 1.3534 ± 0.001 | 1.3516 ± 0.001
w1 = 0.3312 | 1.374 ± 0.001 | 1.373 ± 0.001 | 1.372 ± 0.001 | 1.371 ± 0.001 | 1.3699 ± 0.001 | 1.3689 ± 0.001 | 1.368 ± 0.001 | 1.3671 ± 0.001 | 1.366 ± 0.001
w1 = 0.5005 | 1.3946 ± 0.001 | 1.3932 ± 0.001 | 1.3918 ± 0.001 | 1.3903 ± 0.001 | 1.3889 ± 0.001 | 1.3874 ± 0.001 | 1.3862 ± 0.001 | 1.3851 ± 0.001 | 1.384 ± 0.001
w1 = 0.672 | 1.4112 ± 0.001 | 1.4098 ± 0.001 | 1.4084 ± 0.001 | 1.4069 ± 0.001 | 1.4054 ± 0.001 | 1.4039 ± 0.001 | 1.4024 ± 0.001 | 1.4008 ± 0.001 | 1.3994 ± 0.001
w1 = 0.8044 | 1.4231 ± 0.001 | 1.4216 ± 0.001 | 1.42 ± 0.001 | 1.4184 ± 0.001 | 1.4168 ± 0.001 | 1.415 ± 0.001 | 1.4135 ± 0.001 | 1.4119 ± 0.001 | 1.4103 ± 0.001
w1 = 0.9481 | 1.4343 ± 0.001 | 1.4328 ± 0.001 | 1.4312 ± 0.001 | 1.4296 ± 0.001 | 1.428 ± 0.001 | 1.4264 ± 0.001 | 1.4248 ± 0.001 | 1.4231 ± 0.001 | 1.4214 ± 0.001
w1 = 1 | 1.438 ± 0.001 | 1.4364 ± 0.001 | 1.4348 ± 0.001 | 1.4332 ± 0.001 | 1.4315 ± 0.001 | 1.4299 ± 0.001 | 1.4281 ± 0.001 | 1.4264 ± 0.001 | 1.4247 ± 0.001

OCCCO [propan-1,3-diol] + O
refractive index
Conditions | w1 = 0.1113 | w1 = 0.2226 | w1 = 0.334 | w1 = 0.4453 | w1 = 0.501 | w1 = 0.6123 | w1 = 0.7236 | w1 = 0.8349 | w1 = 0.9277 | w1 = 1
278.15 K | 1.3466 ± 0.001 | 1.3599 ± 0.001 | 1.374 ± 0.001 | 1.3866 ± 0.001 | 1.3931 ± 0.001 | 1.4066 ± 0.001 | 1.4181 ± 0.001 | 1.4289 ± 0.001 | 1.4371 ± 0.001 | 1.4436 ± 0.001
283.15 K | 1.3462 ± 0.001 | 1.3592 ± 0.001 | 1.3729 ± 0.001 | 1.3856 ± 0.001 | 1.3921 ± 0.001 | 1.4055 ± 0.001 | 1.4169 ± 0.001 | 1.4276 ± 0.001 | 1.4358 ± 0.001 | 1.4423 ± 0.001
288.15 K | 1.3457 ± 0.001 | 1.3586 ± 0.001 | 1.3719 ± 0.001 | 1.3845 ± 0.001 | 1.391 ± 0.001 | 1.4041 ± 0.001 | 1.4157 ± 0.001 | 1.4263 ± 0.001 | 1.4345 ± 0.001 | 1.4409 ± 0.001
293.15 K | 1.3452 ± 0.001 | 1.3579 ± 0.001 | 1.371 ± 0.001 | 1.3835 ± 0.001 | 1.3899 ± 0.001 | 1.4029 ± 0.001 | 1.4145 ± 0.001 | 1.425 ± 0.001 | 1.4332 ± 0.001 | 1.4395 ± 0.001
298.15 K | 1.3446 ± 0.001 | 1.3572 ± 0.001 | 1.3702 ± 0.001 | 1.3825 ± 0.001 | 1.3888 ± 0.001 | 1.4015 ± 0.001 | 1.4133 ± 0.001 | 1.4237 ± 0.001 | 1.4319 ± 0.001 | 1.4381 ± 0.001
303.15 K | 1.344 ± 0.001 | 1.3564 ± 0.001 | 1.3693 ± 0.001 | 1.3815 ± 0.001 | 1.3876 ± 0.001 | 1.4002 ± 0.001 | 1.4118 ± 0.001 | 1.4224 ± 0.001 | 1.4304 ± 0.001 | 1.4368 ± 0.001
308.15 K | 1.3434 ± 0.001 | 1.3558 ± 0.001 | 1.3684 ± 0.001 | 1.3804 ± 0.001 | 1.3865 ± 0.001 | 1.3989 ± 0.001 | 1.4103 ± 0.001 | 1.4211 ± 0.001 | 1.4289 ± 0.001 | 1.4354 ± 0.001
313.15 K | 1.3426 ± 0.001 | 1.355 ± 0.001 | 1.3676 ± 0.001 | 1.3793 ± 0.001 | 1.3854 ± 0.001 | 1.3977 ± 0.001 | 1.4089 ± 0.001 | 1.4197 ± 0.001 | 1.4275 ± 0.001 | 1.434 ± 0.001
318.15 K | 1.3418 ± 0.001 | 1.3541 ± 0.001 | 1.3668 ± 0.001 | 1.3782 ± 0.001 | 1.3845 ± 0.001 | 1.3965 ± 0.001 | 1.4075 ± 0.001 | 1.4182 ± 0.001 | 1.4261 ± 0.001 | 1.4325 ± 0.001
